Experimental data from patent US20190218226A1, “PRODRUGS OF ANTICANCER AGENTS INDOTECAN AND INDIMITECAN” (Purdue Research Foundation, priority 2016, published 2019).
Read-outs that look alike come from different tables or passages of the source.

Tests used:
UACC-62 = assay: NCI60 antiproliferative screen, melanoma UACC-62; assay type: cell-based, human; settings: UACC-62, 48 h, sulforhodamine B, read-out: Cytotoxicity (GI50) melanoma UACC-62
Experimental: (§1) All of the indenoisoquinolines were tested for antiproliferative activity in the National Cancer Institute's 60 cell line screen (NCI60). The cells were incubated with the tested compounds at 100, 10, 1, 0.1, and 0.01 μM concentrations for 48 h before treatment with sulforhodamine B dye. Optical densities were recorded, and their ratios relative to that of the control were plotted as percentage growth against the log 10 of the tested compound concentrations. The concentration that corresponds to 50% growth inhibition (GI50) is calculated by interpolation between the points located above and below the 50% percentage growth. The mean-graph midpoint (MGM) is an estimated average of the GI50 values derived from the NCI collection of 60 human cancer cell lines, where during the MGM calculation, anticancer agents with GI50 values that are outside the testing range of 0.01-100 μM are arbitrarily assigned the values of 0.01 and 100 μM, respectively. […] Also, the GI50 values of many of the substances vs. individual human cancer cell lines are below the lowest concentration used (0.01 μM) in the standard NCI testing protocol. […] For example, the MGM cytotoxicity values of 9, 15-17, and 19 are all very close to each other, but the Top1 inhibitory activities range from +++(+) to 0.

SF-539 = assay: NCI60 antiproliferative screen, CNS SF-539; assay type: cell-based, human; settings: SF-539, 48 h, sulforhodamine B, read-out: Cytotoxicity (GI50) CNS SF-539
Experimental: as §1

SN12C = assay: NCI60 antiproliferative screen, renal SN12C; assay type: cell-based, human; settings: 48 h, sulforhodamine B, read-out: Cytotoxicity (GI50) renal SN12C
Experimental: as §1

HCT-116 = assay: NCI60 antiproliferative screen, colon HCT-116; assay type: cell-based, human; settings: HCT-116, 48 h, sulforhodamine B, read-out: Cytotoxicity (GI50) Colon HCT-116
Experimental: as §1

OVCAR-3 = assay: NCI60 antiproliferative screen, ovarian OVCAR-3; assay type: cell-based, human; settings: OVCAR-3, 48 h, sulforhodamine B, read-out: Cytotoxicity (GI50) Ovarian OVCAR-3
Experimental: as §1

[1] = tested on: all human cancer cell lines successfully tested (NCI60); assay: NCI60 mean graph midpoint for growth inhibition; assay type: cell-based; settings: for mean GI50 across NCI60 cell lines (MGM): all human cancer cell lines successfully tested, ± standard error, read-out: MGM (mean graph midpoint for growth inhibition)
Experimental: as §1

DU-145 = assay: NCI60 antiproliferative screen, prostate DU-145; assay type: cell-based, human; settings: DU-145, 48 h, sulforhodamine B, read-out: Cytotoxicity (GI50) prostate DU-145
Experimental: as §1

MCF-7 = assay: NCI60 antiproliferative screen, breast MCF-7; assay type: cell-based, human; settings: MCF-7, 48 h, sulforhodamine B, read-out: Cytotoxicity (GI50) breast MCF-7
Experimental: as §1

HOP-62 = assay: NCI60 antiproliferative screen, lung HOP-62; assay type: cell-based, human; settings: HOP-62, 48 h, sulforhodamine B, read-out: Cytotoxicity (GI50) lung HOP-62
Experimental: as §1

Human recombinant Top1 = molecular target: T1, Human recombinant Top1 (Homo sapiens, UniProt P11387); assay: Top1-mediated DNA cleavage assay; assay type: biochemical; set-up: key to Top1 inhibitory activity (level): 0, no detectable activity; +, weak activity; ++, similar activity to compound 4; +++, greater activity than 4; ++++, equipotent with 1; ++(+) would be between ++ and +++; key to Top 1 Cleavage: 0, no inhibitory activity; +, between 20 and 50% activities; ++, between 50 and 75% activity; +++, between 75 and 95% activity; ++++, equipotent; settings: for Top 1 Cleavage: graded relative to 1 μM camptothecin; for Top1 inhibitory activity (level): scored relative to compounds 1 and 4
T1 construct: made in house
T1 sequence (P11387 1-765): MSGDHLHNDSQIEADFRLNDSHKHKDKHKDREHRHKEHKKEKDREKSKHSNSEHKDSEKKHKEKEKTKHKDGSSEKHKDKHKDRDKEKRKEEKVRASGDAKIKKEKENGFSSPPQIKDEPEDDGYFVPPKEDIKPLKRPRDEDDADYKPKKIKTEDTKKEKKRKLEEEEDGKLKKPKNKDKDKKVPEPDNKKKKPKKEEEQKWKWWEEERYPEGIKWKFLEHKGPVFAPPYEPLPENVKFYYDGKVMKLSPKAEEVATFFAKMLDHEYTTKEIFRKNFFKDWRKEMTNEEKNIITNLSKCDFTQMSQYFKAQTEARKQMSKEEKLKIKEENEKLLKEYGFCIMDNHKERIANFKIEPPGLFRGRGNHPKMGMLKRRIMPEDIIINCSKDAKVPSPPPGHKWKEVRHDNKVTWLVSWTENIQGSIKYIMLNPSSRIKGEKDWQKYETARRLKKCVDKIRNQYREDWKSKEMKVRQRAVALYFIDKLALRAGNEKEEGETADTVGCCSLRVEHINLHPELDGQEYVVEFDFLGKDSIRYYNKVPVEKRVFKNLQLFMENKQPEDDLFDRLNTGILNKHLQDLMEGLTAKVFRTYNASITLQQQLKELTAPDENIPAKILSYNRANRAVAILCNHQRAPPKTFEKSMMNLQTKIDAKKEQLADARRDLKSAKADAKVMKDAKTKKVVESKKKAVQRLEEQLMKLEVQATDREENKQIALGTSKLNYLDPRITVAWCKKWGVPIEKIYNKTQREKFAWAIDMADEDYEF
Experimental: All of the new indenoisoquinoline derivatives were tested in Top1-mediated DNA cleavage assays. For this purpose, a ^32P 3′-end labeled 117-bp DNA fragment was incubated with Top1 at four concentrations of a tested compound. The DNA fragments were separated on 20% PAGE denaturing gels. The Top1 inhibitory activities were assigned on the basis of the visual inspection of the number and intensities of the gel bands corresponding to Top1-mediated DNA cleavage fragments and scored relative to the Top1 inhibitory activity of compounds 1 and 4. Results are expressed in semiquantitative fashion: 0, no detectable activity; +, weak activity; ++, similar activity to compound 4; +++, greater activity than 4; ++++, equipotent with 1. Ambiguous scores (e.g., between two values) are designated with parentheses (e.g., ++(+) would be between ++ and +++). […] After conversion of the hydroxyl to a dimethylcarbamate, the observed Top1 inhibitory activity increased from ++(+) for compound 8 to +++ for compound 10. Introduction of an acetyl group at the 0-2 position yielded compound 11, which was also a Top1 poison with activity at the ++ level. Subsequently, several hydrophobic substituents were attached to the 0-2 position.
Topoisomerase I-Mediated DNA Cleavage Reactions.
Human recombinant Top1 was purified from baculovirus as previously described (Morrell, A., et al., J. Med. Chem. 2007, 50, 2040-2048). DNA cleavage reactions were prepared as previously reported with the exception of the DNA substrate (Strumberg, D., et al., J. Med. Chem. 1999, 42, 446-457). Briefly, a 117-bp DNA oligonucleotide (Integrated DNA Technologies) encompassing the previously identified Top1 cleavage sites in the 161-bp fragment from pBluescript SK(−) phagemid DNA was employed. This 117-bp oligonucleotide contains a single 5′-cytosine overhang, which was 3′-end-labeled by fill-in reaction with [α-^32P]dGTP in React 2 buffer (50 mM Tris-HCl, pH 8.0, […], 50 mM NaCl) with 0.5 unit of DNA polymerase I (Klenow fragment, New England BioLabs). Unincorporated [^32P]dGTP was removed using mini Quick Spin DNA columns (Roche, Indianapolis, Ind.), and the eluate containing the 3′-end-labeled DNA substrate was collected. Approximately 2 nM radiolabeled DNA substrate was incubated with recombinant Top1 in 20 μL of reaction buffer [10 mM Tris-HCl (pH 7.5), 50 mM KCl, 5 mM MgCl2, 0.1 mM EDTA, and 15 μg/mL BSA] at 25° C. for 20 min in the presence of various concentrations of compounds. The reactions were terminated by adding SDS (0.5% final concentration) followed by the addition of two volumes of loading dye (80% formamide, 10 mM sodium hydroxide, 1 mM sodium EDTA, 0.1% xylene cyanol, and 0.1% bromophenol blue). Aliquots of each reaction mixture were subjected to 20% denaturing PAGE. Gels were dried and visualized by using a phosphoimager and ImageQuant software (Molecular Dynamics). For simplicity, cleavage sites were numbered as previously described in the 161-bp fragment.

Row | SMILES | GI50 (UACC-62; Homo sapiens) | GI50 (SF-539; Homo sapiens) | GI50 (SN12C; Homo sapiens) | GI50 (HCT-116; Homo sapiens) | GI50 (OVCAR-3; Homo sapiens) | mean GI50 across NCI60 cell lines (MGM) [1] | GI50 (DU-145; Homo sapiens) | GI50 (MCF-7; Homo sapiens, MCF7) | GI50 (HOP-62; Homo sapiens) | GI50 (UACC-62) | GI50 (SF-539) | GI50 (SN12C) | GI50 (HCT-116) | GI50 (OVCAR-3) | Top 1 Cleavage (Human recombinant Top1) | Top1 inhibitory activity (level) (Human recombinant Top1) | cytotoxicity relative to parent compound (in words) ([1]; NCI60) | GI50 (DU-145) | GI50 (MCF-7) | GI50 (HOP-62) | further results
1 | COc1cc2c3c(n(CCCN4CCOCC4)c(=O)c2cc1O)-c1cc2c(cc1C3=O)OCO2 [Compound 9] | < 10 nM | < 10 nM | < 10 nM | 20 nM | 30 nM | 76 ± 28 nM | < 10 nM | < 10 nM | 10 nM | – | – | – | – | – | – | – | – | – | – | – | –
2 | COc1cc2c(=O)n(CCCN3CCOCC3)c3c(c2cc1OC(C)=O)C(=O)c1cc2c(cc1-3)OCO2 [Compound 11, 3-Methoxy-6-(3-morpholinopropyl)-5,12-dioxo-6,12-dihydro-5H-[1,3]dioxolo[4′,5′:5,6]indeno[1,2-c]isoquinolin-2-yl Acetate] | – | – | – | – | – | 43 ± 19 nM | – | – | – | 18 nM | < 10 nM | < 10 nM | 29 nM | 138 nM | ++ (++, between 50 and 75% activity) | ++ | greater than the parent 8 by a factor of almost one order of magnitude | < 10 nM | < 10 nM | 18 nM | –
3 | COc1cc2c(=O)n(CCCN3CCOCC3)c3c(c2cc1O)C(=O)c1cc2c(cc1-3)OCO2 [Compound 8] | 282 nM | 335 nM | 195 nM | 279 nM | 871 nM | 412 nM | 257 nM | 144 nM | 257 nM | – | – | – | – | – | – | ++(+) | – | – | – | – | –
4 | COc1cc2c3c(n(CCCN4CCOCC4)c(=O)c2cc1OC(C)=O)-c1cc2c(cc1C3=O)OCO2 [Compound 16, 2-Methoxy-6-(3-morpholinopropyl)-5,12-dioxo-6,12-dihydro-5H-[1,3]dioxolo[4′,5′:5,6]indeno[1,2-c]isoquinolin-3-yl Acetate] | – | – | – | – | – | 95 ± 45 nM | – | – | – | < 10 nM | < 10 nM | < 10 nM | < 10 nM | 269 nM | 0 | – | – | < 10 nM | < 10 nM | < 10 nM | –
5 | COc1cc2c(=O)n(CCCN3CCOCC3)c3c(c2cc1OC(=O)c1ccccc1)C(=O)c1cc2c(cc1-3)OCO2 [Compound 13, 3-Methoxy-6-(3-morpholinopropyl)-5,12-dioxo-6,12-dihydro-5H-[1,3]dioxolo[4′,5′:5,6]indeno[1,2-c]isoquinolin-2-yl Benzoate] | – | – | – | – | – | 1500 ± 170 nM | – | – | – | 96 nM | 37 nM | 54 nM | 850 nM | 4570 nM | + (+, between 20 and 50% activities) | + | significantly less cytotoxic than their respective parent compounds | 51 nM | 33 nM | 79 nM | Top1 inhibitory activity (in words) (Human recombinant Top1): weak Top1 poisons; GI50's against various cell lines (range in words) ([1]; NCI60): micromolar range
6 | COC(=O)CCC(=O)Oc1cc2c3c(n(CCCN4CCOCC4)c(=O)c2cc1OC)-c1cc2c(cc1C3=O)OCO2 [Compound 12, 3-Methoxy-6-(3-morpholinopropyl)-5,12-dioxo-6,12-dihydro-5H-[1,3]dioxolo[4′,5′:5,6]indeno[1,2-c]isoquinolin-2-yl Methyl Succinate] | – | – | – | – | – | 49 ± 8 nM | – | – | – | < 10 nM | < 10 nM | < 10 nM | 14 nM | 66 nM | + (+, between 20 and 50% activities) | + | greater than the parent 8 by a factor of almost one order of magnitude | < 10 nM | < 10 nM | < 10 nM | –
